Structures can show the parent of a compound that is named as a salt. Where two headings read alike, the source gives them in different places.

What all share (experiment): AK assay 384-well format, Prestwick library screening
The test system of one assay is E. cloacae. The class given is cell-based, Enterobacter cloacae. Conditions: 50 μM final drug concentration; for fold induction at 50 µM: Enterobacter cloacae, 3 h.
Assay [1] concerns A. baumannii strain 98-37-09. The class given is cell-based, Acinetobacter baumannii. Conditions: 50 μM final drug concentration; for fold induction at 50 µM: Acinetobacter baumannii, 983709, 3 h.
In the next assay the test system is K. pneumoniae. The class given is cell-based, Klebsiella pneumoniae. The note with it: 50 μM final drug concentration; for fold induction at 50 µM: Klebsiella pneumoniae, 3 h.
Assay [2] has as its system S. aureus strain USA300-0114. The class given is cell-based, Staphylococcus aureus. Conditions: 50 μM final drug concentration; for fold induction at 50 µM: Staphylococcus aureus, USA300, 3 h.
The subject of the next assay is E. faecium. Type of assay: cell-based, Enterococcus faecium. Conditions: 50 μM final drug concentration; for fold induction at 50 µM: Enterococcus faecium, 3 h.
Another assay deals with E. coli. The class given is cell-based, Escherichia coli. Conditions: 50 μM final drug concentration; for fold induction at 50 µM: Escherichia coli, 3 h.
The next assay has as its system P. aeruginosa. Type of assay: cell-based, Pseudomonas aeruginosa. Conditions: 50 μM final drug concentration; for fold induction at 50 µM: Pseudomonas aeruginosa, 3 h.
Where [3] appears, read: planktonic E. cloacae, cutoff for positive-scoring molecules 3-fold increase, read-out: AK-based Prestwick Library Screening Results, E. cloacae (increase in extracellular AK activity).
Where [4] appears, read: planktonic A. baumannii, cutoff for positive-scoring molecules 3-fold increase, read-out: AK-based Prestwick Library Screening Results, A. baumannii (increase in extracellular AK activity).
Where [5] appears, read: planktonic K. pneumoniae, cutoff for positive-scoring molecules 3-fold increase, read-out: AK-based Prestwick Library Screening Results, K. pneumoniae (increase in extracellular AK activity).
Where [6] appears, read: planktonic S. aureus, cutoff for positive-scoring molecules 3-fold increase, read-out: AK-based Prestwick Library Screening Results, S. aureus (increase in extracellular AK activity).
Where [7] appears, read: planktonic E. faecium, cutoff for positive-scoring molecules 3-fold increase, read-out: AK-based Prestwick Library Screening Results, E. faecium (increase in extracellular AK activity).
[8] abbreviates: planktonic P. aeruginosa, cutoff for positive-scoring molecules 3-fold increase, read-out: AK-based Prestwick Library Screening Results, P. aeruginosa (increase in extracellular AK activity).
[9] abbreviates: planktonic, cutoff for positive-scoring molecules 3-fold increase.
Setting [10] is: planktonic E. coli, cutoff for positive-scoring molecules 3-fold increase, read-out: AK-based Prestwick Library Screening Results, E. coli (increase in extracellular AK activity).
Setting [11] is: planktonic, cutoff for positive 3-fold increase.

As for `COc1cc(C)nc(-n2nc(C)cc2OC)n1` [Epirizole], the fold induction at 50 µM with E. cloacae (384-well format, cutoff for positive-scoring molecules 3-fold increase, read-out: AK-based Prestwick Library Screening Results, E. cloacae (increase in extracellular AK activity)) came to 1.2; in assay [1] (384-well format, cutoff for positive-scoring molecules 3-fold increase, read-out: AK-based Prestwick Library Screening Results, A. baumannii (increase in extracellular AK activity)), 0.9; with K. pneumoniae (384-well format, cutoff for positive-scoring molecules 3-fold increase, read-out: AK-based Prestwick Library Screening Results, K. pneumoniae (increase in extracellular AK activity)) it was 0.7; in assay [2] (384-well format, cutoff for positive-scoring molecules 3-fold increase, read-out: AK-based Prestwick Library Screening Results, S. aureus (increase in extracellular AK activity)), 2.2; with E. faecium (384-well format, cutoff for positive-scoring molecules 3-fold increase, read-out: AK-based Prestwick Library Screening Results, E. faecium (increase in extracellular AK activity)) it was 0.8; in the assay on E. coli (384-well format, cutoff for positive-scoring molecules 3-fold increase, read-out: AK-based Prestwick Library Screening Results, E. coli (increase in extracellular AK activity)) it was 1. In addition, the fold induction at 50 µM with P. aeruginosa (384-well format, cutoff for positive-scoring molecules 3-fold increase, read-out: AK-based Prestwick Library Screening Results, P. aeruginosa (increase in extracellular AK activity)) was 0.8.
Regarding `C[C@H]1C[C@H]2[C@@H]3CCC4=CC(=O)C=C[C@]4(C)[C@@]3(F)[C@@H](O)C[C@]2(C)[C@@]1(O)C(=O)CO` [Betamethasone], the fold induction at 50 µM was 1.3 in the assay with E. cloacae (setting [3]); 0.9 in assay [1] (setting [4]); 0.9 in the assay with K. pneumoniae (setting [5]); 1.1 in assay [2] (setting [6]); 1.1 in the assay on E. faecium (setting [7]); 1.1 in the assay on E. coli (planktonic E. coli, […], read-out: AK-based Prestwick Library Screening Results, E. coli (increase in extracellular AK activity)). Moreover, the fold induction at 50 µM in the assay with P. aeruginosa (setting [8]) stood at 1.1.
Take `CN(N=O)C(=O)N[C@H]1C(O)O[C@H](CO)[C@@H](O)[C@@H]1O` (mixture of isomers) [Streptozotocin]: in the assay with E. cloacae (setting [9]), the “AK-based Prestwick Library Screening Results, E. cloacae (fold increase in extracellular AK activity)” value is 0.7. Moreover, the “AK-based Prestwick Library Screening Results, A. baumannii (fold increase in extracellular AK activity)” value in assay [1] (setting [9]) was determined as 0.7. Besides, the “AK-based Prestwick Library Screening Results, K. pneumoniae (fold increase in extracellular AK activity)” value in the assay on K. pneumoniae (setting [9]) was found to be 1.4. Further, in assay [2] (setting [9]), the “AK-based Prestwick Library Screening Results, S. aureus (fold increase in extracellular AK activity)” value is listed as 1.2. In addition, the “AK-based Prestwick Library Screening Results, E. faecium (fold increase in extracellular AK activity)” value in the assay with E. faecium (setting [9]) was determined as 2.6. Also, in the assay with E. coli (setting [9]), the “AK-based Prestwick Library Screening Results, E. coli (fold increase in extracellular AK activity)” value came to 0.7. In addition, in the assay with P. aeruginosa (setting [9]), the “AK-based Prestwick Library Screening Results, P. aeruginosa (fold increase in extracellular AK activity)” value turned out to be 0.7.
`COc1cc(/C=C/C(=O)N2CCC=CC2=O)cc(OC)c1OC` [Piperlongumine]: the “AK-based Prestwick Library Screening Results, E. cloacae (fold increase in extracellular AK activity)” value in the assay with E. cloacae (planktonic, […]) amounted to 1.6. In addition, in assay [1] (planktonic, […]), the “AK-based Prestwick Library Screening Results, A. baumannii (fold increase in extracellular AK activity)” value came out at 1.0. For the same molecule, the “AK-based Prestwick Library Screening Results, K. pneumoniae (fold increase in extracellular AK activity)” value with K. pneumoniae (planktonic, […]) is listed as 1.0. The “AK-based Prestwick Library Screening Results, S. aureus (fold increase in extracellular AK activity)” value in assay [2] (planktonic, […]) came to 1.0. Besides, the “AK-based Prestwick Library Screening Results, E. faecium (fold increase in extracellular AK activity)” value in the assay with E. faecium (planktonic, […]) turned out to be 1.0. For the same molecule, the “AK-based Prestwick Library Screening Results, E. coli (fold increase in extracellular AK activity)” value in the assay on E. coli (planktonic, […]) is 1.2. Moreover, in the assay on P. aeruginosa (planktonic, […]), the “AK-based Prestwick Library Screening Results, P. aeruginosa (fold increase in extracellular AK activity)” value worked out at 1.1.
As to `O=C(O)c1cc(/N=N/c2ccc(S(=O)(=O)Nc3ccccn3)cc2)ccc1O` [Sulfasalazine], the fold induction at 50 µM with E. cloacae (setting [3]) was 1.1; in assay [1] (setting [4]) it was 1.1; in the assay on K. pneumoniae (setting [5]), 0.7; in assay [2] (setting [6]), 0.8; in the assay with E. faecium (setting [7]), 0.9; with E. coli (setting [10]), 0.8. Further, in the assay on P. aeruginosa (setting [8]), the fold induction at 50 µM is 0.8.
As for `Oc1cc(O)c2c(c1)O[C@H](c1ccc(O)c(O)c1)[C@H](O)C2` [Epicatechin-(−)], the “AK-based Prestwick Library Screening Results, E. cloacae (fold increase in extracellular AK activity)” value in the assay on E. cloacae (setting [11]) is 0.3. Moreover, in assay [1] (setting [11]), the “AK-based Prestwick Library Screening Results, A. baumannii (fold increase in extracellular AK activity)” value was found to be 0.3. Moreover, the “AK-based Prestwick Library Screening Results, K. pneumoniae (fold increase in extracellular AK activity)” value in the assay on K. pneumoniae (setting [11]) was 0.4. Besides, the “AK-based Prestwick Library Screening Results, S. aureus (fold increase in extracellular AK activity)” value in assay [2] (setting [11]) amounted to 0.3. Also, the “AK-based Prestwick Library Screening Results, E. faecium (fold increase in extracellular AK activity)” value with E. faecium (setting [11]) came to 0.9. In addition, in the assay with E. coli (setting [11]), the “AK-based Prestwick Library Screening Results, E. coli (fold increase in extracellular AK activity)” value came to 0.4. In the assay with P. aeruginosa (setting [11]), the “AK-based Prestwick Library Screening Results, P. aeruginosa (fold increase in extracellular AK activity)” value is given as 0.3.
Regarding `CCCCNc1ccc(C(=O)OCCN(C)C)cc1` [Tetracaine hydrochloride], the fold induction at 50 µM in the assay on E. cloacae (setting [3]) worked out at 0.9; in assay [1] (setting [4]), 0.8; in the assay on K. pneumoniae (setting [5]), 0.6; in assay [2] (setting [6]), 0.6; in the assay with E. faecium (setting [7]), 0.9; with E. coli (setting [10]), 0.9. For the same molecule, in the assay on P. aeruginosa (setting [8]), the fold induction at 50 µM is 0.8.
In the case of `NC(=O)c1ccc[n+]([C@@H]2O[C@H](COP(=O)([O-])OP(=O)(O)OC[C@H]3O[C@@H](n4cnc5c(N)ncnc54)[C@H](O)[C@@H]3O)[C@@H](O)[C@H]2O)c1` [Nadide], the fold induction at 50 µM was determined as 0.9 with E. cloacae (planktonic, cutoff for positive-scoring molecules 3-fold increase, read-out: AK-based Prestwick Library Screening Results, E. cloacae (fold increase in extracellular AK activity)); 0.8 in assay [1] (planktonic, cutoff for positive-scoring molecules 3-fold increase, read-out: AK-based Prestwick Library Screening Results, A. baumannii (fold increase in extracellular AK activity)); 0.7 with K. pneumoniae (planktonic, cutoff for positive-scoring molecules 3-fold increase, read-out: AK-based Prestwick Library Screening Results, K. pneumoniae (fold increase in extracellular AK activity)); 0.6 in assay [2] (planktonic, cutoff for positive-scoring molecules 3-fold increase, read-out: AK-based Prestwick Library Screening Results, S. aureus (fold increase in extracellular AK activity)); 0.9 in the assay with E. faecium (planktonic, cutoff for positive-scoring molecules 3-fold increase, read-out: AK-based Prestwick Library Screening Results, E. faecium (fold increase in extracellular AK activity)); 0.9 in the assay with E. coli (planktonic, cutoff for positive-scoring molecules 3-fold increase, read-out: AK-based Prestwick Library Screening Results, E. coli (fold increase in extracellular AK activity)). The fold induction at 50 µM in the assay on P. aeruginosa (planktonic, cutoff for positive-scoring molecules 3-fold increase, read-out: AK-based Prestwick Library Screening Results, P. aeruginosa (fold increase in extracellular AK activity)) stood at 0.8.
On to `Cc1cnc(C(=O)NCCc2ccc(S(=O)(=O)NC(=O)NC3CCCCC3)cc2)cn1` [Glipizide], for which the fold induction at 50 µM in the assay with E. cloacae (planktonic E. cloacae, 384-well, cutoff for positive-scoring molecules 3-fold increase, read-out: AK-based Prestwick Library Screening Results: E. cloacae (increase in extracellular AK activity)) is 1.3; in assay [1] (planktonic A. baumannii, 384-well, cutoff for positive-scoring molecules 3-fold increase, read-out: AK-based Prestwick Library Screening Results: A. baumannii (increase in extracellular AK activity)), 1; with K. pneumoniae (planktonic K. pneumoniae, 384-well, cutoff for positive-scoring molecules 3-fold increase, read-out: AK-based Prestwick Library Screening Results: K. pneumoniae (increase in extracellular AK activity)), 0.8; in assay [2] (planktonic S. aureus, 384-well, cutoff for positive-scoring molecules 3-fold increase, read-out: AK-based Prestwick Library Screening Results: S. aureus (increase in extracellular AK activity)) it was 1.2; in the assay on E. faecium (planktonic E. faecium, 384-well, cutoff for positive-scoring molecules 3-fold increase, read-out: AK-based Prestwick Library Screening Results: E. faecium (increase in extracellular AK activity)), 0.9; in the assay on E. coli (planktonic E. coli, 384-well, cutoff for positive-scoring molecules 3-fold increase, read-out: AK-based Prestwick Library Screening Results: E. coli (increase in extracellular AK activity)), 1.2. In the assay on P. aeruginosa (planktonic P. aeruginosa, 384-well, cutoff for positive-scoring molecules 3-fold increase, read-out: AK-based Prestwick Library Screening Results: P. aeruginosa (increase in extracellular AK activity)), the fold induction at 50 µM turned out to be 1.
